Earlier results as cited in PMC11327090, “The Nectin family ligands, PVRL2 and PVR, in cancer immunology and immunotherapy” (Frontiers in Immunology, 2024).

Experiments:
Myeloma cells = system: Myeloma cells; parameters: method as in PMID 19098271; settings: treated myeloma cells
breast cancer cell lines = system: breast cancer cell lines; parameters: method as in PMID 30039180; settings: in vitro
[1] = system: non-small cell lung cancer; parameters: method as in PMID 35576957; settings: phase II trial

Compound	PVRL2 and PVR expression (Myeloma cells)	PVR expression (breast cancer cell lines)	objective response rate [1]	Median progression-free survival ([1]; 95% CI in brackets)
COc1cccc2c1C(=O)c1c(O)c3c(c(O)c1C2=O)C[C@@](O)(C(=O)CO)C[C@@H]3O[C@H]1C[C@H](N)[C@H](O)[C@H](C)O1 [Adriamycin]	upregulate PVRL2 and PVR expression	increases PVR expression		
CC(C)C[C@H](NC(=O)[C@H](Cc1ccccc1)NC(=O)c1cnccn1)B(O)O [bortezomib]	upregulate PVRL2 and PVR expression			
N[C@@H](Cc1ccc(N(CCCl)CCCl)cc1)C(=O)O [melphalan]	upregulate PVRL2 and PVR expression			
placebo plus atezolizumab: anti-PD-L1 antibody atezolizumab with placebo, comparator arm of the phase II trial			16.2%	3.6 months
